# Measured values published in US11155586B2, “Cystine knot scaffold platform” (Genentech, Inc., priority 2015, dated 2021).
# Positions of bridges follow the written chain, without caps; N, C: chain ends. Residues, ends and D or L forms follow the SMILES beside them.
# Key:
# PDGF and PDGFR = molecular target: T1, PDGF and PDGFR (Homo sapiens, UniProt P01127); test: Competition ELISA, growth factor/receptor interaction; format: binding; settings: FIG. 2B
# T1 construct: purchased R &D Systems (Minneapolis, Minn.)
# T1 sequence (P01127 82-190 limits assumed): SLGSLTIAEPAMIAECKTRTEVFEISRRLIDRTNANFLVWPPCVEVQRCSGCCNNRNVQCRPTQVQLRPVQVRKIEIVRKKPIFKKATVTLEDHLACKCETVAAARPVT
# Protocol: (§1) Binding specificity of each peptide was established by competition ELISA. […] After blocking with block buffer (PBS with 0.5% BSA and 0.05% TWEEN®20) for 2 hours at room temperature, the receptor-Fc fusions or biotinylated receptors were serially diluted using assay buffer (PBS with 0.5% BSA and 0.05% TWEEN®20) and incubated for 1 hour at room temperature. […] Competition ELISA was conducted in an identical fashion as described above except after blocking, a mixture of serially diluted peptide containing a constant concentration of receptor-Fc fusion or biotinylated receptor (concentration of receptor was set to EC60) was added and incubated for 1 hour. All recombinant human proteins and antibodies were purchased from R &D Systems (Minneapolis, Minn.).
# VEGF-B and Flt-1 = molecular target: T2, VEGF-B and Flt-1 (Homo sapiens, UniProt P49765); test: as above; format: binding; settings: FIG. 2A
# T2 construct: purchased R &D Systems (Minneapolis, Minn.)
# T2 sequence (P49765 22-136 limits assumed): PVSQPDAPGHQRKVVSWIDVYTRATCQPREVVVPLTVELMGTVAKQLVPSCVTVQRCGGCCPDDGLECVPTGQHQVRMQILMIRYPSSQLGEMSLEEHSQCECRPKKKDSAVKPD
# Protocol: as §1
# VEGF-C and Flt-4 = molecular target: T3, VEGF-C and Flt-4 (Homo sapiens, UniProt P49767); test: as above; format: binding; settings: FIG. 2A
# T3 construct: purchased R &D Systems (Minneapolis, Minn.)
# T3 sequence (P49767 112-227 limits assumed): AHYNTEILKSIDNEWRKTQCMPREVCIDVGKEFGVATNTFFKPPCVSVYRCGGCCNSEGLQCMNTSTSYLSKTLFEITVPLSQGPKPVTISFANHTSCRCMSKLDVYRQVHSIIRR
# Protocol: as §1
# [1] = tested on: choroidal neovascularization in rat eyes; test: VEGF-A driven model of laser-induced choroidal neovascularization; format: in vivo; settings: intravitreal, 14-day period, vs control eyes, FIG. 12
# Protocol: Next, VEGF-A binding variants VEGF_CKP9.54.90, VEGF_CKP9.63.12, and VEGF_CKP9.63.44 were assessed for their in vivo efficacy in a VEGF-A driven model of choroidal neovascularization. Laser-burnt spots were created in rat eyes and the formation of new vessels was monitored after a 14-day period in the presence and absence of peptide that was administered intravitreally at different intervals.
# [2] = Oxidative stability (AAPH, LC-MS); format: physicochemical; settings: 16 hours at 40° C.
# Protocol: The oxidative stability of various CKP variants was assayed as follows: 5 μL of 11 mM AAPH (Calbiochem catalog no. 100110) in water was added to 50 uL of variant peptide sample (prepared as 1 mg/mL peptide in 20 mM histidine acetate pH 5.5) and the mix was incubated for 16 hours at 40° C. At the end of the incubation, the sample was quenched by addition of 27.5 uL of 40 mM methionine, followed by addition of 160 ul of 20 mM Histidine acetate, 100 mM sucrose at pH 5.5 to dilute the samples. The reactions were analyzed by LC-MS.
smiles,measurement,setting,value
"CC[C@H](C)[C@@H]1NC(=O)[C@H](CC(N)=O)NC(=O)[C@@H](NC(=O)CN)CSSC[C@@H](C(=O)N[C@H](C(=O)N[C@H]2CSSC[C@@H](C(=O)NCC(=O)O)NC(=O)[C@H](CO)NC(=O)[C@H](CCC(N)=O)NC(=O)[C@H](Cc3ccc(O)cc3)NC(=O)[C@H](Cc3ccc(O)cc3)NC(=O)[C@H](CCC(N)=O)NC2=O)C(C)C)NC(=O)CNC(=O)[C@H](C)NC(=O)[C@H](CC(C)C)NC(=O)[C@@H]2CSSC[C@H](NC(=O)CNC(=O)[C@H](Cc3c[nH]c4ccccc34)NC(=O)[C@H](Cc3ccccc3)NC(=O)[C@@H]3CCCN3C(=O)[C@H](CC(C)C)NC(=O)[C@H](CCSC)NC1=O)C(=O)NCC(=O)N[C@@H](CCCNC(=N)N)C(=O)N[C@@H](CC(=O)O)C(=O)N[C@@H](Cc1ccccc1)C(=O)N[C@@H](CCC(=O)O)C(=O)N2 [VEGF_CKP9.54.90] (H-GCNIMLPFWGCGRDFECLAGCVCQYYQSCG-OH; disulfide 2-21, 11-17, 23-29; N-terminus and C-terminus assumed)",disruption of the interaction between PDGF and PDGFR,PDGF and PDGFR,not disrupt
same,disruption of the interaction between VEGF-B and Flt-1,VEGF-B and Flt-1,not disrupt
same,disruption of the interaction between VEGF-C and Flt-4,VEGF-C and Flt-4,not disrupt
same,inhibition of laser-induced choroidal neovascularization (neovascular area),[1],effective inhibition
same,oxidation at Met5 within loop 1,[2],~30%
